Values joined by “and” are separate entries in the source; they are usually repeats but may differ in a detail not shown here. Identical values can stand only once.
Test system: cerebellar granule neurons
Test: LK-induced death of cultured cerebellar granule neurons, viability by DAPI staining
Type: cell-based, rat
Conditions: for protection at doses lower than 1 μM compared with 1 μM: 0.5, 0.25 and 0.1 μM; for neuroprotection against LK-induced neuronal death, in words: overall over 1, 5 and 25 μM
Description: Culturing and treatments of cerebellar granule neurons: Granule neuron cultures were obtained from dissociated cerebella of 6-7 day old Wistar rats as described previously (D'Mello et al., 1993). Cells were plated in Basal Eagle's Medium (BME) supplemented with 10% fetal calf serum (FCS), 25 mM KCl, 2 mM glutamine (Invitrogen), and 100 μg/ml gentamycin in poly-L-lysine coated 24-well dishes at a density 1×10^6 cells/well. Cytosine arabinofuranoside (10 μM) was added to the culture medium 18-22 h after plating to prevent replication of nonneuronal cells. Previous immunocytochemical analyses by our lab and other investigators have shown that these cultures have high purity containing over 95% granule neurons (Thangnipon et al., 2003; Kingsbury et al., 2005).
The neuronal cultures were maintained for 7-8 days prior to treatment. For treatment, the cells were rinsed once and then maintained in low K+ medium (serum-free BME medium; referred to as LK), or in the case of control cultures, in high K+ medium (serum-free BME medium supplemented with 20 mM KCl; referred to as HK). For treatments, the chemical compounds (dissolved in dimethylsulfoxide) were added directly to LK medium at the time of the switch from HK at concentrations of 1, 5, or 25 μM. Viability was assessed 24 hours by 4′,6′-diamidino-2-phenylindole hydrochloride (DAPI) staining (see below). Each compound was tested in duplicate (at each of the concentrations) and the experiment repeated at least 3 times.
The viability status of neuronal cultures treated with HK, LK, or LK medium supplemented with various compounds was evaluated by phase contrast microscopy and quantified by staining cell nuclei with DAPI as previously described (Yalcin et al., 2003; Morrison et al., 2006; Majzadeh et al., 2007)). Briefly, the cells were fixed in 4% paraformaldehyde for 20 min at 4° C. After washing in phosphate buffered saline, diamidino-2-phenylindole hydrochloride (DAPI; 1 μg/ml in phosphate buffered saline) was added for 15 min at room-temperature and viewed under ultraviolet light (260 nm). Cells with condensed or fragmented nuclei were scored as dead. Viability has been expressed as percent of control cultures, which were switched to HK medium). Statistical analysis was performed using an unpaired, two-tailed Student's T test, compared to mean neuronal survival of control cultures receiving LK treatment.
When cultured cerebellar granule neurons are switched from HK to LK medium about 50% of the cells underwent apoptosis within 24 h (D'Mello et al., 1993). The inventors utilized this widely used and recognized model to test a total of 20 different 1,4-benzoxazine derivatives for their ability to protect against LK-induced neuronal death. Each compound was tested at 3 different doses—1 μM, 5 μM and 25 μM and viability quantified by DAPI-staining. The highest does was included to test for possible toxicity effects of the compounds. Key results were confirmed using TUNEL staining, another reliable assay of apoptosis (FIG. 1). As shown in Table 1 and FIG. 1, the present invention identifies several compounds with significant neuroprotective effect. Two of the most protective compounds are HSB-13 and HSB-22, both with Ar=3′,5′-dibromo-4′-hydroxyphenyl (FIG. 1). […] Protection with this compound is lower than that observed with HSB-13 and HSB-22 at the two lower doses. […] To examine whether a higher level of protection could be observed at doses lower than 1 μM, the analyses of these compounds was extended to doses of 0.5, 0.25, and 0.1 μM.
When cultured cerebellar granule neurons are switched to LK medium, about 50% of the cells undergo apoptosis within 24 h. In this study, a total of 20 different 1,4-benzoxazine derivatives of the structure shown in FIG. 1 were tested for their ability to protect against LK-induced death of cerebellar granule neurons. Each compound was tested at 3 different doses —1 μM, 5 μM and 25 μM. […]

[1] = Table 1, 1 μM in LK medium, 24 h, % of survival in control cultures in HK medium, LK alone 48%
[2] = Table 1, 5 μM in LK medium, 24 h, % of survival in control cultures in HK medium, LK alone 48%
[3] = Table 4, 1 μM in LK medium, % of survival in HK control cultures, LK alone 48.16±8.44%
[4] = Table 4, 5 μM in LK medium, % of survival in HK control cultures, LK alone 48.16±8.44%
[5] = Table 4, 25 μM in LK medium, % of survival in HK control cultures, LK alone 48.16±8.44%
[6] = Table 1, 25 μM in LK medium, 24 h, % of survival in control cultures in HK medium, LK alone 48%

Compound | protection against LK-induced neuronal death (FIG. 1) (25 μM, 24 h, phase contrast microscopy, DAPI-staining, TUNEL-staining) | % Survival [1] | % Survival [2] | % Survival [3] | % Survival [4] | % Survival [5] | % Survival (Table 4, 25 μM in LK medium, % of survival in HK control cultures, LK alone 48.16±8.44%, listed as HSB-) | % Survival [6] | protection at doses lower than 1 μM compared with 1 μM | neuroprotection against LK-induced neuronal death, in words
CC(=O)Oc1c(Br)cc(/C=C2\Oc3ccc(F)cc3NC2=O)cc1Br [HSB-5] | protective | 65.9 ± 5.08% | 69.3 ± 9.75% | 65.9 ± 5.08% | 69.3 ± 9.75% | 95.6 ± 0.98 % | – | – | – | –
CC(=O)Oc1c(Br)cc(/C=C2\Oc3ccc(C)cc3NC2=O)cc1Br [HSB-3] | – | 56.9 ± 11.54% | 59.6 ± 11.97% | 56.9 ± 11.54% | 59.6 ± 11.97% | 97.4 ± 12.98 % | ~97% | – | – | –
O=C1Nc2ccccc2OC1=Cc1c[nH]c2ccccc12 [HSB-20] | – | 52.2 ± 10.11% | 62.5 ± 3.14% | 52.2 ± 10.11% | 62.5 ± 3.14% | 48.3 ± 12.11% | – | 48.3 ± 12.11% | – | –
CN1C(=S)C(=Cc2ccc[nH]2)Oc2ccccc21 [ASK-9] | – | – | 70.2 ± 5.32% | 84.5% and 84.5 ± 3.30 % | 70.2 ± 5.32% | 65.1 ± 5.63% | – | 65.1 ± 5.63% | lower | –
COc1cc(/C=C2\Oc3ccc(C)cc3NC2=O)cc(OC)c1OC [HSB-15] | – | 60.7 ± 2.76% | 66.5 ± 9.26% | 60.7 ± 2.76% | 66.5 ± 9.26% | 63.9 ± 3.32% | – | 63.9 ± 3.32% | – | –
COc1ccc(OC)c(C=C2Oc3ccccc3NC2=S)c1 [ASK-11] | – | 73.8 ± 2.31% | 90.7 ± 14.50 % | 73.8 ± 2.31% | 90.7% and 90.7 ± 14.50 % | 74.0 ± 3.59% | – | 74.0 ± 3.59% | – | significant level of protection
CC(=O)Oc1c(Br)cc(/C=C2\Oc3ccc(Cl)cc3NC2=O)cc1Br [HSB-2] | – | 44.1 ± 23.42% | 62.3 ± 15.64% | 44.1 ± 23.42% | 62.3 ± 15.64% | – | – | – | – | –
Cc1ccc2c(c1)NC(=O)/C(=C/c1ccccn1)O2 [HSB-7] | – | 59.4 ± 13.93% | – | 59.4 ± 13.93% | 59.8 ± 6.40% | 88.1 ± 2.44 % | – | 88.1 ± 2.44 % | – | –
Cc1ccc2c(c1)NC(=O)/C(=C/c1ccsc1)O2 [HSB-4] | – | – | 60.3 ± 4.47% | 65.0 ± 4.34% | 60.3 ± 4.47% | 61.0 ± 3.58% | – | 61.0 ± 3.58% | lower | inactive
O=C1Nc2ccccc2OC1=Cc1cccs1 [HSB-11] | – | 64.2 ± 12.18% | 68.8 ± 4.26% | 64.2 ± 12.18% | 68.8 ± 4.26% | 68.8 ± 4.49% | – | 68.8 ± 4.49% | – | inactive
CC(=O)Oc1c(Br)cc(/C=C2\Oc3ccc([N+](=O)[O-])cc3NC2=O)cc1Br [HSB-1] | – | 58.8 ± 10.31% | – | 58.8 ± 10.31% | – | 63.5 ± 9.34% | – | 63.5 ± 9.34% | – | –
S=C1Nc2ccccc2OC1=Cc1cccs1 [ASK-8] | – | – | 60.8 ± 2.62% | 73.3 ± 0.79 % | 60.8 ± 2.62% | 39.3 ± 7.78% | – | 39.3 ± 7.78% | lower | inactive
CN(C)c1ccc(C=C2Oc3ccccc3NC2=O)cc1 [HSB-9] | – | – | 68.8 ± 13.54% | 67.3 ± 16.43% | 68.8 ± 13.54% | 63.3 ± 1.73% | – | 63.3 ± 1.73% | lower | –
O=C1Nc2ccccc2OC1=Cc1ccsc1 [HSB-12] | – | 76.8 ± 5.79 % | 76.2 ± 3.42 % | 76.8 ± 5.79 % | 76.2 ± 3.42 % | 81.4 ± 9.45 % | – | 81.4 ± 9.45 % | – | inactive
COc1cc(/C=C2\Oc3ccc(I)cc3NC2=O)cc(OC)c1OC [HSB-6] | – | 61.9 ± 9.07% | 72.1 ± 19.33% | 61.9 ± 9.07% | 72.1 ± 19.33% | 59.4 ± 13.11% | – | 59.4 ± 13.11% | – | lack of neuroprotection
COc1cc(C=C2Oc3ccccc3NC2=O)cc(OC)c1OC [HSB-14] | – | 63.9 ± 2.26% | 70.0 ± 1.63% | 63.9 ± 2.26% | 70.0 ± 1.63% | 69.2 ± 5.30% | – | 69.2 ± 5.30% | – | –
O=C1Nc2ccccc2O/C1=C\c1cc(Br)cc(Br)c1 [ASK-1] | – | 75.3 ± 10.56% | 68.8 ± 12.99% | 75.3 ± 10.56% | 68.8 ± 12.99% | 69.1 ± 7.56% | – | 69.1 ± 7.56% | – | lack of neuroprotection

Reference: patent US8680094B2, “1, 4-benzoxazine compounds and derivatives thereof as therapeutic drugs for the treatment of neurodegenerative conditions” (Board of Regents, The University of Texas System, priority 2008, dated 2014)
